Data from patent US10858360B2, “Tricyclic gyrase inhibitors” (priority 2011, dated 2020).
≈ marks a conversion by molar mass, not a printed value. Like-named read-outs stand apart in the source and are kept apart here.

Tests used:
S. aureus ATCC 13709 = assay: MIC, S. aureus ATCC 13709 (Alamar Blue broth microdilution); format: cell-based; settings: for MIC: Staphylococcus aureus, ATCC13709, S. aureus
E. coli ATCC 25922 = assay: MIC, E. coli ATCC 25922; format: cell-based; settings: for MIC: Escherichia coli, ATCC25922, E. coli
[1] = Alamar Blue read after overnight incubation at 35° C.
[2] = S. aureus, Alamar Blue read after overnight incubation at 35° C.
[3] = E. coli, Alamar Blue read after overnight incubation at 35° C.

Structure (SMILES) | MIC (S. aureus ATCC 13709; [1]) | MIC (E. coli ATCC 25922; [1]) | other results
CNc1cc(F)cc2c1[nH]c1nc(Oc3cnc(C)nc3)nc(-c3cccc(CN)c3F)c12 [4.422] | 4 µg/mL (≈ 8.94 µM) | 16 µg/mL (≈ 35.8 µM) | 
CNc1cc(F)cc2c1[nH]c1nc(Oc3cncc(Cl)c3)nc(N3CC(N)C4(CC4)C3)c12 (stereo not shown) [4.273] |  |  | MIC Sa (S. aureus ATCC 13709; [2]): ≤0.5 µg/mL; MIC Ec (E. coli ATCC 25922; [3]): 2 µg/mL (≈ 4.41 µM)
CNc1cc(F)cc2c1[nH]c1nc(Oc3cnc(C)nc3)nc(-c3cccnc3N)c12 [4.448] | ≤ 0.5 µg/mL | 1 µg/mL (≈ 2.4 µM) | 
CNc1cccc2c1[nH]c1nc(Oc3cncnc3)nc(N3CCC4(CC4N)C3)c12 (stereo not shown) [3.41] | ≤ 0.5 µg/mL | ≤ 0.5 µg/mL | 
CNc1cc(F)cc2c1[nH]c1nc(Oc3cnc(N4CC(O)C4)nc3)nc(N3C[C@H](N)C4(CC4)C3)c12 [4.299] | ≤ 0.5 µg/mL | 4 µg/mL (≈ 8.14 µM) | 
CNc1cc(F)cc2c1[nH]c1nc(Oc3cnc(C(C)(C)O)nc3)nc(N3CC4C[C@@H](N)C4C3)c12 (stereo partly shown) [4.412] | ≤ 0.5 µg/mL | ≤ 0.5 µg/mL | 
CNc1cc(F)cc2c1[nH]c1nc(Oc3cncnc3)nc(N3CCC4(CC4N)C3)c12 (stereo not shown) [4.003] | ≤ 0.5 µg/mL | ≤ 0.5 µg/mL | 
CNc1cccc2c1[nH]c1nc(Oc3cncnc3)nc(N3CCC(CN)C3)c12 (stereo not shown) [3.58] | 32 µg/mL (≈ 82 µM) | > 64 µg/mL | 
CNc1cc(F)cc2c1[nH]c1nc(Oc3cnc(C)nc3)nc(N3CC4CCC(N)C4C3)c12 (stereo not shown) [4.075] |  |  | MIC Sa (S. aureus ATCC 13709; [2]): ≤0.5 µg/mL; MIC Ec (E. coli ATCC 25922; [3]): ≤0.5 µg/mL
CNc1cc(F)cc2c1[nH]c1nc(Oc3cnc(C)nc3)nc(N3CC4CCC(N)C4C3)c12 (stereo not shown) [4.102] |  |  | MIC Sa (S. aureus ATCC 13709; [2]): ≤0.5 µg/mL; MIC Ec (E. coli ATCC 25922; [3]): 2 µg/mL (≈ 4.46 µM)
CNc1cc(F)cc2c1[nH]c1nc(Oc3cnc(C)nc3)nc(N3C4CCC3CC(N)C4)c12 (stereo not shown) [4.091] |  |  | MIC Sa (S. aureus ATCC 13709; [2]): ≤0.5 µg/mL; MIC Ec (E. coli ATCC 25922; [3]): 1 µg/mL (≈ 2.23 µM)
CNc1cc(F)cc2c1[nH]c1nc(Oc3cncnc3)nc(N3CC[C@@]4(C[C@H]4N)C3)c12 [4.014] | ≤ 0.5 µg/mL | 1 µg/mL (≈ 2.38 µM) | 
CNc1cc(F)cc2c1[nH]c1nc(Oc3ccc4c(c3)C(=O)NCC4)nc(N3CC4C[C@@H](N)C4C3)c12 (stereo partly shown) [4.302] | ≤ 0.5 µg/mL | 2 µg/mL (≈ 4.1 µM) | 
CNc1ncc(Oc2nc(N3CCC4(CC4N)C3)c3c(n2)[nH]c2c(NC)cc(F)cc23)cn1 (stereo not shown) [4.220] | ≤ 0.5 µg/mL | ≤ 0.5 µg/mL | 
CNc1cc(F)cc2c1[nH]c1nc(Oc3cnc(C)nc3)nc(N3CCC(F)(CN)CC3)c12 [4.159] | ≤ 0.5 µg/mL | ≤ 0.5 µg/mL | 
COc1cccc2c1[nH]c1nc(Sc3cnc4nccnc4c3)nc(N3CC4C(N)C4C3)c12 (stereo not shown) [1.76] | 1 µg/mL (≈ 2.19 µM) | > 64 µg/mL | 

Structure (SMILES) | MIC (S. aureus ATCC 13709; [1]) | MIC (E. coli ATCC 25922; [1]) | other results
CNc1cccc2c1[nH]c1nc(Sc3cnc4cccnc4c3)nc(N3CCC[C@@H](N)C3)c12 [1.37] | 1 µg/mL (≈ 2.19 µM) | 4 µg/mL (≈ 8.76 µM) | 
CNc1cccc2c1[nH]c1nc(Oc3ccc4nccnc4c3)nc(N3CC4C(N)C4C3)c12 (stereo not shown) [3.31] | 2 µg/mL (≈ 4.56 µM) | 8 µg/mL (≈ 18.2 µM) | 
NC1C2CN(c3nc(Sc4cnc5ccc[n+]([O-])c5c4)nc4[nH]c5c(Cl)cccc5c34)CC12 (stereo not shown) [1.3] | 32 µg/mL (≈ 67.2 µM) | > 64 µg/mL | 
CNc1cc(F)c(C)c2c1[nH]c1nc(Oc3cnc(C)nc3)nc(N3CC4(CCC4N)C3)c12 (stereo not shown) [6.20] |  |  | MIC Sa (S. aureus ATCC 13709): 4 µg/mL (≈ 8.92 µM); MIC Ec (E. coli ATCC 25922): >16 µg/mL
CNc1cc(F)cc2c1[nH]c1nc(Oc3cnc(CCO)nc3)nc(N3CC4C[C@@H](N)C4C3)c12 (stereo partly shown) [4.429] |  |  | MIC Sa (S. aureus ATCC 13709; [2]): ≤0.5 µg/mL; MIC Ec (E. coli ATCC 25922; [3]): 1 µg/mL (≈ 2.15 µM)
CNc1cc(F)cc2c1[nH]c1nc(Oc3cncc([S+](C)[O-])c3)nc(N3CC(N)C4(CC4)C3)c12 (stereo not shown) [4.352] |  |  | MIC Sa (S. aureus ATCC 13709; [2]): ≤0.5 µg/mL; MIC Ec (E. coli ATCC 25922; [3]): 4 µg/mL (≈ 8.31 µM)
CNc1cccc2c1[nH]c1nc(Sc3cnc4cccnc4c3)nc(N3CCN(C(C)=O)CC3)c12 [1.67] | ≤ 0.5 µg/mL | > 64 µg/mL | 
CNc1cc(F)cc2c1[nH]c1nc(Oc3cnc4cccnc4c3)nc(N3CC4(CC4N)C3)c12 (stereo not shown) [4.042] |  |  | MIC Sa (S. aureus ATCC 13709; [2]): ≤0.5 µg/mL; MIC Ec (E. coli ATCC 25922; [3]): ≤0.5 µg/mL
CNc1cc(F)cc2c1[nH]c1nc(Oc3cnc(C)nc3)nc(-c3ccc(Cl)cc3N)c12 [4.161] |  |  | MIC Sa (S. aureus ATCC 13709; [2]): ≤0.5 µg/mL; MIC Ec (E. coli ATCC 25922; [3]): ≤0.5 µg/mL
CNc1cc(F)cc2c1[nH]c1nc(Oc3cnc4cccnc4c3)nc(N3CC4NCCOC4C3)c12 (stereo not shown) [4.048] |  |  | MIC Sa (S. aureus ATCC 13709; [2]): ≤0.5 µg/mL; MIC Ec (E. coli ATCC 25922; [3]): 1 µg/mL (≈ 2.06 µM)
CNc1cccc2c1[nH]c1nc(Oc3cncc(-c4nnn(C)n4)c3)nc(N3CC4C(N)C4C3)c12 (stereo not shown) [3.24] | 2 µg/mL (≈ 4.26 µM) | 8 µg/mL (≈ 17 µM) | 
CNc1cc(F)cc2c1[nH]c1nc(Oc3cncc(F)c3)nc(N3CCC4(C[C@H]4N)C3)c12 (stereo partly shown) [4.062] | ≤ 0.5 µg/mL | ≤ 0.5 µg/mL | 
CNc1cc(F)cc2c1[nH]c1nc(Oc3cncnc3)nc(N3CCC4CNC4C3)c12 (stereo not shown) [4.018] | ≤ 0.5 µg/mL | ≤ 0.5 µg/mL | 
CNc1cc(F)cc2c1[nH]c1nc(Oc3cnc4c(c3)OCCO4)nc(N3CC4CC(N)C4C3)c12 (stereo not shown) [4.294] | ≤ 0.5 µg/mL | 1 µg/mL (≈ 2.09 µM) | 
CNc1cc(F)cc2c1[nH]c1nc(Oc3cnc(C(C)(C)O)nc3)nc(N3CC4(CC[C@H]4N)C3)c12 [4.413] | ≤ 0.5 µg/mL | ≤ 0.5 µg/mL | 
CCOC(=O)c1ncc(Oc2nc(N3CC4CC3C[C@@H]4N)c3c(n2)[nH]c2c(NC)cc(F)cc23)cn1 (stereo partly shown) [4.400] | ≤ 0.5 µg/mL | ≤ 0.5 µg/mL | 
